Experimental data taken from patent US20090022803A1, “Oral Formulations For Delivery of Catecholic Butanes Including Ndga Compounds” (priority 2005, published 2009).

Assay: Stability of M4N formulations at room temperature (time to crystallized precipitation)
Type: physicochemical
Protocol: A 10 mL solution of M4N at a concentration of about 10 mg/mL in 40% BP-β-CD was made as follows. About 10 mL of the 40% HP-β-CD solution were added to a glass beaker containing a stir bar. The beaker was placed on a magnetic plate and the stir bar was set to stir at medium speed. About […] of M4N were slowly added to the 40% HP-β-CD in the center of the beaker with the aid of a spatula. The M4N/40% HP-β-CD mixture was stirred for 2 hr or until all M4N was uniformly suspended without any clumps being present. The M4N/40% HP-β-CD mixture was optionally heated at 80° C. for about 30 min. (or longer if a larger volume of solution was desired, for example, 1 hr at 80° C. for 100 mL of the M4N/HP-β-CD mixture), or longer as needed to ensure complete dissolution of M4N. […] The final M4N/40% HP-β-CD solution was stored at room temperature and was kept protected from light. This process may be scaled up or down to obtain the requisite volume or concentration of M4N. Formulations containing M4N in other cyclodextrin solutions may be similarly made, such as, for example, by substituting HP-β-CD in the process described above with other cyclodextrins.
A 100 mL solution of M4N at a concentration of about 25 mg/mL in PEG 300 was made as follows. About 100 mL of PEG 300 were added to a glass beaker containing a stir bar. The beaker was placed on a magnetic plate and the stir bar was set to stir at medium speed. About 2.5 g of M4N were slowly added to the PEG 300 in the center of the beaker with the aid of a spatula to prevent M4N from sticking to the beaker wall. The M4N/PEG 300 mixture was stirred for 24 hr or until all M4N had dissolved or was uniformly suspended without any clumps being present. The M4N/PEG 300 mixture was optionally heated at about 60° C. for about 30 min. (or longer if a larger volume of solution was desired, for example, 1 hr at 60° C. for 500 mL of the M4N/PEG 300 mixture), or longer as needed to ensure complete dissolution of M4N. […] If crystals formed, the M4N/PEG 300 solution could be heated again at 60° C. for about 1 hr, with stirring, on a hot magnetic plate until all M4N was dissolved back in solution. The final M4N/PEG 300 solution was stored at room temperature and was kept protected from light. This process may be scaled up or down to obtain the requisite volume or concentration of M4N. Formulations containing M4N in other PEGs may be similarly made, such as, for example, by substituting PEG 300 in the process described above with PEG 400 or PEG 400 monolaurate.
Formulations containing M4N in other water-insoluble lipids combined with non-ionic, ionic or amphipathic surfactants or water-soluble organic solvents may be similarly made, such as, for example, by substituting sesame oil in the process described above with corn oil, olive oil, soybean oil, peppermint oil, or mineral oil and substituting Tween® 20 with Tween® 80, TPGS, lecithin, PEG 300, PEG 400, PEG 400 monolaurate, glycerol, PVP, PG, or other solubilizing agents, and combinations thereof. Stability in reference to the clear liquid solutions herein refers to the time it takes to form crystallized precipitation in solution. A stable solution is one that is clear and free of particulates for an extended period of time.

SMILES: COc1ccc(C[C@@H](C)[C@@H](C)Cc2ccc(OC)c(OC)c2)cc1OC [Formulation M4N, meso-1,4-bis(3,4-dimethoxyphenyl)-2,3-dimethylbutane]
- Stability at Room Temperature (0.3% (v/v) Piperin, 49.8% (v/v) PEG 400, 49.8% (v/v) Tween ® 20, M4N 60 mg/mL, suspension): >9 days
- Stability at Room Temperature (0.4% (v/v) Cinnamadehyde, 49.8%(v/v) PEG 400, 49.8% (v/v) Tween ® 20, M4N 60 mg/mL): >4 days
- Stability at Room Temperature (0.4% (v/v) Cinnamaldehyde, 4.6% (v/v) Peppermint Oil, 47.5% (v/v) PEG 400, 47.5% (v/v) Tween ® 20, M4N 60 mg/mL): >2 days
- Stability at Room Temperature (0.4% (v/v) Eugenol, 49.8% (v/v) Tween ® 20, 49.8% (v/v) PEG 400, M4N 60 mg/mL): >2 days
- Stability at Room Temperature (3% (w/v)Glycerol Monostearate, 48.5% (v/v) PEG 400, 48.5% (v/v) Tween ® 20, M4N 60 mg/mL): >1 days
- Stability at Room Temperature (5% (v/v) Peppermint Oil, 47.5% (v/v) Tween ® 20, 47.5% (v/v) PEG 400, M4N 60 mg/mL): >2 days
- Stability at Room Temperature (10% TPGS (w/v), 50% PEG 400 (v/v), M4N 50 mg/ml, suspension): >7 days
- Stability at Room Temperature (25%(w/v) Lecithin, 37.5% (v/v) PEG 400, 37.5% (v/v) Tween ® 20, M4N 60 mg/mL): >14 days
- Stability at Room Temperature (47.5% (v/v) Tween ® 20, 47.5% (v/v) PEG 400, 2.5% (w/v) Beeswax 2.5% (w/v) PEG 3350, M4N 60 mg/mL): >4 days
- Stability at Room Temperature (47.5% Tween ® 20 (v/v), 47.5% PEG 400 (v/v), 5% Beeswax (w/v), M4N 200 mg/g, waxy solid): >3 days
- Stability at Room Temperature (50% Tween ® 20 (v/v), 50% PEG 400 (v/v), M4N 30 mg/ml): >3 days
- Stability at Room Temperature (50% Tween ® 20 (v/v), 50% PEG 400 (v/v), M4N 40 mg/ml): >3 days
- Stability at Room Temperature (50% Tween ® 20 (v/v), 50% PEG 400 (v/v), M4N 50 mg/ml): >3 days
- Stability at Room Temperature (50% Tween ® 20 (v/v), 50% PEG 400 (v/v), M4N 60 mg/ml): >3 days
- Stability at Room Temperature (50.3% (v/v) Tween ® 20, 44.6% (v/v) PEG 400, 2.4% (w/v) Beeswax, 2.4% (w/v) PEG 3350, 0.3% (w/v) Naringenin, M4N 60 mg/mL): >4 days
- Stability at Room Temperature (Glycerol Monoleate 100% (w/v), M4N 0.10 mg/ml, remains in suspension, can be mixed back together): for up to 10 days
- Stability at Room Temperature (Glycerol Monoleate 100% (w/v), M4N 0.25 mg/ml, remains in suspension, can be mixed back together): for up to 10 days
- Stability at Room Temperature (Glycerol Monoleate 100% (w/v), M4N 1.00 mg/ml, remains in suspension, can be mixed back together): for up to 10 days
- Stability at Room Temperature (Glycerol Monoleate 100% (w/v), M4N 5.0 mg/ml, remains in suspension, can be mixed back together): for up to 10 days
- Stability at Room Temperature (Glycerol Monoleate 100% (w/v), M4N 10.0 mg/ml, remains in suspension, can be mixed back together): for up to 10 days
- Stability at Room Temperature (Glycerol Monoleate 100% (w/v), M4N 12.0 mg/ml, remains in suspension, can be mixed back together): for up to 10 days
- Stability at Room Temperature (Glycerol Monoleate 100% (w/v), M4N 15.0 mg/ml, remains in suspension, can be mixed back together): for up to 10 days
- Stability at Room Temperature (Glycerol Monoleate 100% (w/v), M4N 17.5 mg/ml, remains in suspension, can be mixed back together): for up to 10 days
- Stability at Room Temperature (Glycerol Monoleate 100% (w/v), M4N 20.0 mg/ml, remains in suspension, can be mixed back together): for up to 10 days
- Stability at Room Temperature (Glycerol Monoleate 100% (w/v), M4N 25.0 mg/ml, remains in suspension, can be mixed back together): for up to 10 days
- Stability at Room Temperature (Glycerol Monoleate 100% (w/v), M4N 30.0 mg/ml, remains in suspension, can be mixed back together): for up to 10 days
- Stability at Room Temperature (Glycerol Monoleate 100% (w/v), M4N 40.0 mg/ml, remains in suspension, can be mixed back together): for up to 10 days
- Stability at Room Temperature (Glycerol Monoleate 100% (w/v), M4N 50.0 mg/ml, remains in suspension, can be mixed back together): for up to 10 days
- Stability at Room Temperature (Glycerol Monoleate 100% (w/v), M4N 60.0 mg/ml, remains in suspension, can be mixed back together): for up to 10 days
- Stability at Room Temperature (Glycerol Monoleate 100% (w/v), M4N 65.0 mg/ml, remains in suspension, can be mixed back together): for up to 10 days
- Stability at Room Temperature (Glycerol Monoleate 100% (w/v), M4N 70.0 mg/ml, remains in suspension, can be mixed back together): for up to 10 days
- Stability at Room Temperature (Glycerol Monoleate 100% (w/v), M4N 80.0 mg/ml, remains in suspension, can be mixed back together): for up to 10 days
- Stability at Room Temperature (Glycerol Monoleate 100% (w/v), M4N 100.0 mg/ml, remains in suspension, can be mixed back together): for up to 10 days
- Stability at Room Temperature (Glycerol Monoleate 100% (w/v), M4N 200.0 mg/ml, remains in suspension, can be mixed back together): for up to 10 days
- Stability at Room Temperature (Glycerol Monoleate 100% (w/v), M4N 300.0 mg/ml, remains in suspension, can be mixed back together): for up to 10 days
- Stability at Room Temperature (Labrafil ® 100%, M4N 60 mg/mL): >4 days
- Stability at Room Temperature (Labrasol ® 100%, M4N 50 mg/mL): >4 days
- Stability at Room Temperature (Labrasol ® 100%, M4N 60 mg/mL): >4 days
- Stability at Room Temperature (Labrasol ® 100%, M4N 70 mg/mL): >4 days
- Stability at Room Temperature (Labrasol ® 100%, M4N 80 mg/mL): >4 days
- Stability at Room Temperature (M4N 1 mg/mL in 20% HP-β-CD): >7 days
- Stability at Room Temperature (M4N 1 mg/mL in 30% HP-β-CD): >7 days
- Stability at Room Temperature (M4N 1 mg/mL in 50% HP-β-CD): >7 days
- Stability at Room Temperature (M4N 1 mg/mL in 50% HP-β-CD, 1.25% PVP (w/v)): <3 days
- Stability Time at Room Temperature (M4N 1 mg/mL in Peppermint Oil): >3 days
- stable at room temperature (M4N 1 mg/mL in Tween® 20): more than 7 days
- stable at room temperature (M4N 1 mg/mL in Tween® 80): more than 3 days
